# Measurements published in patent US6916812B2, “Alpha-aminoamide derivatives as melanocortin agonists” (Bristol-Myers Squibb Company, priority 2001, dated 2005).
# Where two headings read alike, the source gives them in different places.
# Molecular target: T1, cloned human MC4R (Homo sapiens, UniProt P32245)
# T1 construct: made in house; host or cells: Hi5 insect cells (baculovirus infection); membrane preparation
# Assay: Membrane binding assay: competitive inhibition of [125I]NDP-α-MSH binding
# Settings: for inhibition at 10 µM: read-out: Displacement Rate (%) (at 10 μM); for IC50: read-out: MC4R IC50
# Experimental: Hi5 cells are infected using the following protocol: Cells at a density of 1×10^6 cells/mL are spun down at 1000 rpm (Beckman GS-6KR centrifuge) for 10 minutes. Cells are resuspended in 10% of their original volume in a sterile 50 mL conical centrifuge tube wrapped with aluminum foil. Virus is added at a Multiplicity of Infection (MOI) of 3 and incubated for 1 hour at room temperature with gentle shaking. […] Cells are spun down in 50 mL conical centrifuge tubes at 1000 rpm for 10 minutes. Each of the resulting pellets are resuspended in 10 mL of cold (4° C.) membrane buffer (25 mM HEPES, pH 7.4, 140 mM NaCl, 1.2 mM MgCl2, 2.5 mM CaCl2, 10 μG/mL Aprotinin, 10 μG/mL Leupeptin) and Dounce homogenized using 10-12 strokes. […] The resulting pellet is resuspended in cold membrane buffer in a total of ¼ of the original volume by vortexing and aspiration using a syringe and 27 gauge needle. Protein content is determined (Bradford, Bio-Rad Protein Assay). Membranes are aliquoted in microcentrifuge tubes and quick frozen in liquid nitrogen. Store at −80° C. until use. The membrane binding buffer is composed of 25 mM HEPES, pH 7.4, 140 mM NaCl, 1.2 mM MgCl2, 2.5 mM CaCl2, 0.1% BSA. […] The mixture is filtered with Brandel Microplate 96 filter apparatus using 96-well GF/B filter presoaked in 1-% polyethyleneimine (Sigma). The filter is washed (4 times with a total of 1 mL per well) with cold wash buffer consisting of 20 mM HEPES, pH 7.4, 5 mM MgCl2. […] 100 μl of Wallac Optiphase Supermix scintillation fluid is added to each well. The top is sealed and the plates are shaken to insure that the filters are thoroughly soaked with fluid. […] Dose-response curves are fitted by […] analyses and IC50 values are calculated using ExcelFit.
# [1] = at 10 μM, [125I]NDP-α-MSH displacement
# T1 sequence (P32245 whole entry): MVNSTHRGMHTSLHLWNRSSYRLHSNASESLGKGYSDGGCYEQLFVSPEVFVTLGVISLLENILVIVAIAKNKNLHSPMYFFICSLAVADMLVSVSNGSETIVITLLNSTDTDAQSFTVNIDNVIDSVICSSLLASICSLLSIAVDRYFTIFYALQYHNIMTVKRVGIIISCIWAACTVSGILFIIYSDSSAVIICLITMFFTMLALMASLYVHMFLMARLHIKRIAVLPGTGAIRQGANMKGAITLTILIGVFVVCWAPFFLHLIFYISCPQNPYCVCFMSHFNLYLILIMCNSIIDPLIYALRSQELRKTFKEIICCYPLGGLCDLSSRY
inhibition at 10 µM [1] [%],IC50 [µM],Compound,inhibition at 10 µM [%]
91 to 100,< 1.5,Cc1ccc(S(=O)(=O)n2cc(CN3CCN(C(=O)[C@@H](N)Cc4ccc(OCc5ccccc5)cc4)CC3)c3ccccc32)cc1 [Example 97],
91 to 100,1.5 to 3,N[C@@H](Cc1ccc(OCc2ccccc2)cc1)C(=O)N1CCN(Cc2ccc(C(F)(F)F)cc2C(F)(F)F)CC1 [Example 98],
91 to 100,< 1.5,CCCCCOc1ccc(CN2CCN(C(=O)[C@@H](N)Cc3ccc(OCc4ccccc4)cc3)CC2)cc1 [Example 99],
91 to 100,< 1.5,N[C@@H](Cc1ccc(OCc2ccccc2)cc1)C(=O)N1CCN(Cc2cc(C(F)(F)F)cc(C(F)(F)F)c2)CC1 [Example 101],
91 to 100,1.5 to 3,N[C@@H](Cc1ccc(OCc2ccccc2)cc1)C(=O)N1CCN(CC(c2ccccc2)c2ccccc2)CC1 [Example 102],
91 to 100,< 1.5,N[C@@H](Cc1ccc(OCc2ccccc2)cc1)C(=O)N1CCN(Cc2cccc(Oc3ccccc3)c2)CC1 [Example 103],
91 to 100,1.5 to 3,CCOc1ccc(CN2CCN(C(=O)[C@@H](N)Cc3ccc(OCc4ccccc4)cc3)CC2)c(OCC)c1C [Example 104],
71 to 90,< 1.5,N[C@@H](Cc1ccc(OCc2ccccc2)cc1)C(=O)N1CCN(Cc2ccc3ccccc3c2)CC1 [Example 105],
71 to 90,1.5 to 3,COc1ccc2ccccc2c1CN1CCN(C(=O)[C@@H](N)Cc2ccc(OCc3ccccc3)cc2)CC1 [Example 106],
71 to 90,1.5 to 3,Cc1ccc(C)c(CN2CCN(C(=O)[C@@H](N)Cc3ccc(OCc4ccccc4)cc3)CC2)c1 [Example 107],
71 to 90,> 3,N[C@@H](Cc1ccc(OCc2ccccc2)cc1)C(=O)N1CCN(Cc2ccccc2-c2ccccc2)CC1 [Example 109],
71 to 90,< 1.5,N[C@@H](Cc1ccc(OCc2ccccc2)cc1)C(=O)N1CCN(Cc2ccc(OCc3ccc([N+](=O)[O-])cc3)cc2)CC1 [Example 110],
71 to 90,> 3,N[C@@H](Cc1ccc(OCc2ccccc2)cc1)C(=O)N1CCN(Cc2ccccc2[N+](=O)[O-])CC1 [Example 111],
71 to 90,1.5 to 3,CC(C)(C)c1ccc(CN2CCN(C(=O)[C@@H](N)Cc3ccc(OCc4ccccc4)cc3)CC2)cc1 [Example 112],
71 to 90,< 1.5,N[C@@H](Cc1ccc(OCc2ccccc2)cc1)C(=O)N1CCN(CC2CCCCC2)CC1 [Example 113],
71 to 90,> 3,COc1cc(CN2CCN(C(=O)[C@@H](N)Cc3ccc(OCc4ccccc4)cc3)CC2)ccc1OCc1ccccc1 [Example 115],
71 to 90,1.5 to 3,CCOc1ccccc1CN1CCN(C(=O)[C@@H](N)Cc2ccc(OCc3ccccc3)cc2)CC1 [Example 116],
71 to 90,> 3,CCOc1cccc(CN2CCN(C(=O)[C@@H](N)Cc3ccc(OCc4ccccc4)cc3)CC2)c1O [Example 117],
71 to 90,> 3,N[C@@H](Cc1ccc(OCc2ccccc2)cc1)C(=O)N1CCN(C2CCC(c3ccccc3)CC2)CC1 (stereo partly shown) [Example 118],
71 to 90,> 3,N[C@@H](Cc1ccc(OCc2ccccc2)cc1)C(=O)N1CCN(Cc2ccc(Cl)cc2Cl)CC1 [Example 119],
71 to 90,> 3,N[C@@H](Cc1ccc(OCc2ccccc2)cc1)C(=O)N1CCN(Cc2cccc(F)c2F)CC1 [Example 120],
71 to 90,1.5 to 3,COc1cc(CN2CCN(C(=O)[C@@H](N)Cc3ccc(OCc4ccccc4)cc3)CC2)cc(Br)c1OC [Example 121],
71 to 90,1.5 to 3,CCCCCCCN1CCN(C(=O)[C@@H](N)Cc2ccc(OCc3ccccc3)cc2)CC1 [Example 122],
71 to 90,> 3,N[C@@H](Cc1ccc(OCc2ccccc2)cc1)C(=O)N1CCN(Cc2cccc(C(F)(F)F)c2)CC1 [Example 123],

inhibition at 10 µM [1] [%],IC50 [µM],Compound,inhibition at 10 µM [%]
71 to 90,1.5 to 3,CSc1ccc(CN2CCN(C(=O)[C@@H](N)Cc3ccc(OCc4ccccc4)cc3)CC2)cc1 [Example 125],
71 to 90,1.5 to 3,CCCOc1ccc(CN2CCN(C(=O)[C@@H](N)Cc3ccc(OCc4ccccc4)cc3)CC2)cc1 [Example 126],
71 to 90,,N[C@@H](Cc1ccc(OCc2ccccc2)cc1)C(=O)N1CCN(Cc2cccc3ccccc23)CC1 [Example 127],
35 to 70,> 3,Cc1ccsc1CN1CCN(C(=O)[C@@H](N)Cc2ccc(OCc3ccccc3)cc2)CC1 [Example 128],
35 to 70,> 3,N[C@@H](Cc1ccc(OCc2ccccc2)cc1)C(=O)N1CCN(Cc2ccc(Br)cc2)CC1 [Example 129],
35 to 70,> 3,COc1cc(OC)c(CN2CCN(C(=O)[C@@H](N)Cc3ccc(OCc4ccccc4)cc3)CC2)cc1Br [Example 130],
35 to 70,> 3,CCc1ccc(CN2CCN(C(=O)[C@@H](N)Cc3ccc(OCc4ccccc4)cc3)CC2)s1 [Example 131],
35 to 70,> 3,COc1ccc(CCC(C)N2CCN(C(=O)[C@@H](N)Cc3ccc(OCc4ccccc4)cc3)CC2)cc1 (stereo partly shown) [Example 132],
35 to 70,< 1.5,CCCCCCCCOc1ccc(CN2CCN(C(=O)[C@@H](N)Cc3ccc(OCc4ccccc4)cc3)CC2)cc1 [Example 133],
35 to 70,> 3,CCc1ccc(CN2CCN(C(=O)[C@@H](N)Cc3ccc(OCc4ccccc4)cc3)CC2)cc1 [Example 135],
35 to 70,> 3,CC(Cc1cccc(C(F)(F)F)c1)N1CCN(C(=O)[C@@H](N)Cc2ccc(OCc3ccccc3)cc2)CC1 (stereo partly shown) [Example 136],
35 to 70,> 3,CN(C)c1ccc(CN2CCN(C(=O)[C@@H](N)Cc3ccc(OCc4ccccc4)cc3)CC2)c2ccccc12 [Example 137],
35 to 70,> 3,N[C@@H](Cc1ccc(OCc2ccccc2)cc1)C(=O)N1CCN(Cc2ccc(C(F)(F)F)cc2)CC1 [Example 138],
35 to 70,1.5 to 3,N[C@@H](Cc1ccc(OCc2ccccc2)cc1)C(=O)N1CCN(C2CCN(CCc3ccccc3)CC2)CC1 [Example 139],
35 to 70,> 3,N[C@@H](Cc1ccc(OCc2ccccc2)cc1)C(=O)N1CCN(Cc2c(F)cccc2Cl)CC1 [Example 140],
35 to 70,> 3,N[C@@H](Cc1ccc(OCc2ccccc2)cc1)C(=O)N1CCN(Cc2ccccc2)CC1 [Example 141],
35 to 70,> 3,N[C@@H](Cc1ccc(OCc2ccccc2)cc1)C(=O)N1CCN(Cc2c(F)cccc2F)CC1 [Example 142],
35 to 70,> 3,CC(C)N1CCN(C(=O)[C@@H](N)Cc2ccc(OCc3ccccc3)cc2)CC1 [Example 143],
35 to 70,> 3,Cc1cccc(CN2CCN(C(=O)[C@@H](N)Cc3ccc(OCc4ccccc4)cc3)CC2)c1 [Example 144],
35 to 70,> 3,N[C@@H](Cc1ccc(OCc2ccccc2)cc1)C(=O)N1CCN(Cc2cc(F)ccc2F)CC1 [Example 145],
35 to 70,> 3,CC(C)CN1CCN(C(=O)[C@@H](N)Cc2ccc(OCc3ccccc3)cc2)CC1 [Example 146],
35 to 70,> 3,N[C@@H](Cc1ccc(OCc2ccccc2)cc1)C(=O)N1CCN(CCCc2ccccc2)CC1 [Example 147],
35 to 70,> 3,N[C@@H](Cc1ccc(OCc2ccccc2)cc1)C(=O)N1CCN(Cc2ccc([N+](=O)[O-])cc2)CC1 [Example 149],

Compound,inhibition at 10 µM [1] [%],IC50 [µM],inhibition at 10 µM [%]
N[C@@H](Cc1ccc(OCc2ccccc2)cc1)C(=O)N1CCN(Cc2c3ccccc3cc3ccccc23)CC1 [Example 100],,1.5 to 3,91 to 100
N[C@@H](Cc1ccc(OCc2ccccc2)cc1)C(=O)N1CCN(Cc2ccc(Cl)c([N+](=O)[O-])c2)CC1 [Example 114],,> 3,71 to 90
N[C@@H](Cc1ccc(OCc2ccccc2)cc1)C(=O)N1CCN(Cc2cc3c(cc2Cl)OCO3)CC1 [Example 124],,> 3,71 to 90
N[C@@H](Cc1ccc(OCc2ccccc2)cc1)C(=O)N1CCN(Cc2cc([N+](=O)[O-])ccc2Cl)CC1 [Example 134],,1.5 to 3,35 to 70
N[C@@H](Cc1ccc(OCc2ccccc2)cc1)C(=O)N1CCN(Cc2cc(O)ccc2[N+](=O)[O-])CC1 [Example 148],,> 3,35 to 70
